Experimental data: patent US20250011288A1 (BRISTOL-MYERS SQUIBB COMPANY, priority 2021, published 2025)

Biological target: T1, human RXFP1 (Homo sapiens, UniProt Q9HBX9)
T1 construct: expressed in transfected cells
T1 sequence (Q9HBX9 1-757): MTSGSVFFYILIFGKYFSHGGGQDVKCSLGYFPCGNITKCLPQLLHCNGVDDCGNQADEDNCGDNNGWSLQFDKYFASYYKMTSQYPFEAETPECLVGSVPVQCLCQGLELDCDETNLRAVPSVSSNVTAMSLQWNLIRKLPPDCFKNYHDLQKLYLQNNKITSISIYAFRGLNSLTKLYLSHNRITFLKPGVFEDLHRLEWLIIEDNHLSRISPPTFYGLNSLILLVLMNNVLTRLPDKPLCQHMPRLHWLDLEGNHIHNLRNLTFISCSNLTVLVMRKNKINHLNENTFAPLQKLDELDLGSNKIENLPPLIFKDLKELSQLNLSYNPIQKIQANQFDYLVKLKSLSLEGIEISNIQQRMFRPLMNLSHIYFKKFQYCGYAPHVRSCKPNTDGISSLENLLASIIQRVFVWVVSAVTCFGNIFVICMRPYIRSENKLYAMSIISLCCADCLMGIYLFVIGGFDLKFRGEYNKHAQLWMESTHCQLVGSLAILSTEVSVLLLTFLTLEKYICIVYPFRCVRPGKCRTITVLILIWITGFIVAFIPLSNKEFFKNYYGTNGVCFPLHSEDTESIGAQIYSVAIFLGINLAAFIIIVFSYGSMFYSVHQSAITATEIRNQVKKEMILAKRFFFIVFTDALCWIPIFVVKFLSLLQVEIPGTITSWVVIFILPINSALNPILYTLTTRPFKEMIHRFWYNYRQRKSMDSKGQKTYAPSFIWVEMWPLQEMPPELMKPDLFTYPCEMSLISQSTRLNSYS
Assay: human RXFP1 (hRXFP1) HEK293 cAMP assay (HTRF)
Assay type: cell-based
Conditions: HEK293 cells stably expressing human RXFP1, 30 min at room temperature
Procedure, shortened: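 Intracellular cAMP was quantified by HTRF after a 30 min room-temperature exposure of hRXFP1-HEK293 cells (1500/well) to compound at 0.010 nM–50 µM final, 2% DMSO. Buffer was HBSS with 20 mM HEPES, 0.05% BSA and 0.5 mM IBMX; values came from a 4-parameter logistic fit.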

| Structure (SMILES) | EC50 [nM] |
| --- | --- |
| COc1ncc(C2=NOC3CC(C(OC(=O)Nc4ccccc4)C4CC4)CC23)cc1C(=O)N[C@@H]1C2CCC(/C2=C/C2CC(F)(F)C2)[C@@H]1C(=O)Nc1ccc(F)c(C(F)(F)F)c1 (stereo partly drawn) [Example 160, cyclopropyl[3-(5-{[(2R,3S,7Z)-7-1(3,3-difluorocyclobutyl)methylidene]-3-{[4-fluoro-3-(trifluoromethyl)phenyl]carbamoyl}bicyclo[2.2.1]heptan-2-yl]carbamoyl}-6-methoxypyridin-3-yl)-3aH,4H,5H,6H, 6aH-cyclopenta[d][1,2] oxazol-5-yl]methyl N-phenylcarbamate] | 8.4 |
| COc1ncc(C2=NOC3CC(C(OC(=O)NC4CCC4)C4CC4)CC23)cc1C(=O)N[C@@H]1C2CCC(/C2=C/C2CC(F)(F)C2)[C@@H]1C(=O)Nc1ccc(F)c(C(F)(F)F)c1 (stereo partly drawn) [Example 161, cyclopropyl[3-(5-{[(2R,3S,7Z)-7-[(3,3-difluorocyclobutyl)methylidene]-3-{[4-fluoro-3-(trifluoromethyl)phenyl]carbamoyl}bicyclo[2.2.1]heptan-2-yl]carbamoyl}-6-methoxypyridin-3-yl)-3aH,4H,5H,6H, 6aH-cyclopenta[d][1,2]oxazol-5-yl]methyl N-cyclobutylcar-bamate] | 9 |
| COc1ncc(C2=NOC3CC(C(OC(=O)Nc4ccccc4)C4CC4)CC23)cc1C(=O)N[C@@H]1C2CCC(/C2=C/C2CCCC2)[C@@H]1C(=O)Nc1ccc(F)c(C(F)(F)F)c1 (stereo partly drawn) [Example 162, [3-(5-{[(2R,3S,7Z)-7-(cyclopentyl-methylidene)-3-{[4-fluoro-3-(trifluoromethyl)phenyl]carbamoyl}bicyclo[2.2.1]heptan-2-yl]carbamoyl}-6-methoxypyridin-3-yl)-3aH,4H,5H,6H, 6aH-cyclopenta[d][1,2]oxazol-5-yl](cyclopropyl) methyl N-phenylcarbamate] | 4.6 |
| COc1ncc(-c2cc([C@H](O)C(F)(F)F)ccc2F)cc1C(=O)N[C@H]1[C@@H](C(=O)Nc2ccc(F)c(C(F)(F)F)c2)[C@H]2CC[C@@H]1/C2=C\C1CCCC1 [Example 163, N-[(1R,2R,3S,4R, 7Z)-7-(cyclopentyl-methylidene)-3-{[4-fluoro-3-(trifluoromethyl)phenyl]carbamoyl}bicyclo[2.2.1]heptan-2-yl]-5-{2-fluoro-5-[(1S)-2,2,2-trifluoro-1-hydroxyethyl]phenyl}-2-methoxypyridine-3-carboxamide] | 1 |
| COc1ncc(-c2cc([C@H](OC(=O)NC3CC3)C(F)(F)F)ccc2F)cc1C(=O)N[C@@H]1C2CCC(/C2=C/C2CCCC2)[C@@H]1C(=O)Nc1ccc(F)c(C(F)(F)F)c1 (stereo partly drawn) [Example 164, (1S)-1-[3-(5-{[(1R,2R,3S,4R, 7Z)-7-(cyclopentyl-methylidene)-3-{[4-fluoro-3-(trifluoromethyl)phenyl]carbamoyl}bicyclo[2.2.1]heptan-2-yl]carbamoyl}-6-methoxypyridin-3-yl)-4-fluorophenyl]-2,2,2-trifluoroethyl N-cyclopropylcar-bamate] | 1.4 |
| COc1ncc(-c2cc([C@H](OC(=O)NC3CC3)C(F)(F)F)ccc2F)cc1C(=O)N[C@H]1[C@@H](C(=O)Nc2ccc(F)c(C(F)(F)F)c2)[C@H]2CC[C@@H]1/C2=C\CCC(F)(F)F [Example 165, (1S)-2,2,2-trifluoro-1-[4-fluoro-3-(5-{[(1R,2R,3S,4R, 7Z)-3-{[4-fluoro-3-(trifluoromethyl)phenyl]carbamoyl}-7-(4,4,4-trifluorobutylidene)bicyclo[2.2.1]heptan-2-yl]carbamoyl}-6-methoxypyridin-3-yl)phenyl]ethyl N-cyclopropyl-carbamate] | 1.2 |
| COc1ncc(-c2cc([C@H](OC(=O)NC3CC3)C(F)(F)F)ccc2F)cc1C(=O)N[C@H]1[C@@H](C(=O)Nc2ccc(F)c(C(F)(F)F)c2)[C@H]2CC[C@@H]1/C2=C\C(C)C [Example 166, (1S)-2,2,2-trifluoro-1-[4-fluoro-3-(5-{[(1R,2R,3S,4R, 7Z)-3-{[4-fluoro-3-(trifluoromethyl)phenyl]carbamoyl}-7-(2-methylpropylidene)bicyclo[2.2.1]heptan-2-yl]carbamoyl}-6-methoxypyridin-3-yl)phenyl]ethyl N-cyclopropyl-carbamate] | 2.5 |
| COc1ncc(-c2cc([C@H](OC(=O)NC3CC3)C(F)(F)F)ccc2F)cc1C(=O)N[C@H]1[C@@H](C(=O)Nc2ccc(F)c(C(F)(F)F)c2)[C@H]2CC[C@@H]1/C2=C\C1CC(F)(F)C1 [Example 167, (1S)-1-[3-(5-{[(1R,2R,3S,4R, 7Z)-7-[(3,3-difluorocyclobutyl)methylidene]-3-{[4-fluoro-3-(trifluoromethyl)phenyl]carbamoyl}bicyclo[2.2.1]heptan-2-yl]carbamoyl}-6-methoxypyridin-3-yl)-4-fluorophenyl]-2,2,2-trifluoroethyl N-cyclopropyl-carbamate] | 1.7 |

More lines, now with the values ahead:

| EC50 [nM] | Structure (SMILES) |
| --- | --- |
| 5.3 | COc1ncc(-c2cc([C@H](OC(=O)NC3CCC3)C(F)(F)F)ccc2F)cc1C(=O)N[C@@H]1C2CCC(/C2=C/CCC(F)(F)F)[C@@H]1C(=O)Nc1ccc(F)c(C(F)(F)F)c1 (stereo partly drawn) [Example 168, (1S)-2,2,2-trifluoro-1-[4-fluoro-3-(5-{[(2R,3S,7Z)-3-{[4-fluoro-3-(trifluoromethyl)phenyl]carbamoyl}-7-(4,4,4-trifluorobutylidene)bicyclo[2.2.1]heptan-2-yl]carbamoyl}-6-methoxypyridin-3-yl)phenyl]ethyl N-cyclobutyl-carbamate] |
| 7.9 | COc1ncc(-c2cc([C@H](OC(=O)NC3CCC3)C(F)(F)F)ccc2F)cc1C(=O)N[C@@H]1C2CCC(/C2=C/C2CC(F)(F)C2)[C@@H]1C(=O)Nc1ccc(F)c(C(F)(F)F)c1 (stereo partly drawn) [Example 169, (1S)-1-[3-(5-{[(2R,3S,7Z)-7-[(3,3-difluorocyclobutyl)methylidene]-3-{[4-fluoro-3-(trifluoromethyl)phenyl]carbamoyl}bicyclo[2.2.1]heptan-2-yl]carbamoyl}-6-methoxypyridin-3-yl)-4-fluorophenyl]-2,2,2-trifluoroethyl N-cyclobutyl-carbamate] |
| 3.3 | COc1ncc(C2=NOC3CC(C(O)C(F)(F)F)CC23)cc1C(=O)N[C@H]1[C@@H](C(=O)N[C@H](C)C2(C)CC2)[C@H]2CC[C@@H]1/C2=C\C1CC(F)(F)C1 (stereo partly drawn) [Example 170, N-[(1R,2R,3S,4R, 7Z)-7-[(3,3-difluorocyclobutyl)methylidene]-3-{[(1R)-1-(1-methylcyclo-propyl)ethyl]carbamoyl}bicyclo[2.2.1]heptan-2-yl]-2-methoxy-5-[5-(2,2,2-trifluoro-1-hydroxyethyl)-3aH,4H,5H,6H, 6aH-cyclopenta[d] [1,2]oxazol-3-yl]pyridine-3-carboxamide] |
| 7.9 | COc1ncc(C2=NOC3CC(C(OC(=O)NC4CCC4)C(F)(F)F)CC23)cc1C(=O)N[C@@H]1C2CCC(/C2=C/C2CC2)[C@@H]1C(=O)Nc1ccc(F)c(C(F)(F)F)c1 (stereo partly drawn) [Example 171, 1-[3-(5-{[(2R,3S,7Z)-7-(cyclopropyl-methylidene)-3-{[4-fluoro-3-(trifluoromethyl)phenyl]carbamoyl}bicyclo[2.2.1]heptan-2-yl]carbamoyl}-6-methoxypyridin-3-yl)-3aH,4H,5H,6H, 6aH-cyclopenta[d][1,2]oxazol-5-yl]-2,2,2-trifluoroethyl N-cyclobutyl-carbamate] |
| 4.3 | COc1ncc(C2=NOC3CC(CO)CC23)cc1C(=O)N[C@H]1[C@@H](C(=O)Nc2ccc(F)c(C(F)(F)F)c2)[C@H]2CC[C@@H]1/C2=C\C1CCCC1 (stereo partly drawn) [Example 172, N-[(1R,2R,3S,4R, 7Z)-7-(cyclopentyl-methylidene)-3-{[4-fluoro-3-(trifluoromethyl)phenyl]carbamoyl}bicyclo[2.2.1]heptan-2-yl]-5-[5-(hydroxymethyl) 3aH,4H,5H,6H, 6aH-cyclopenta[d][1,2]oxazol-3-yl]-2-methoxypyridine-3-carboxamide] |
| 0.6 | COc1ncc(C2=NOC3CC(C(O)C(F)(F)F)CC23)cc1C(=O)N[C@H]1[C@@H](C(=O)Nc2ccc(F)c(C(F)(F)F)c2)[C@H]2CC[C@@H]1/C2=C\C1CCCC1 (stereo partly drawn) [Example 173, N-[(1R,2R,3S,4R, 7Z)-7-(cyclopentyl-methylidene)-3-{[4-fluoro-3-(trifluoromethyl)phenyl]carbamoyl}bicyclo[2.2.1]heptan-2-yl]-2-methoxy-5-[5-(2,2,2-trifluoro-1-hydroxyethyl)-3aH,4H,5H,6H, 6aH-cyclopenta[d][1,2]oxazol-3-yl]pyridine-3-carboxamide] |
| 1.9 | COc1ncc(C2=NOC3CC(C(OC(=O)Nc4ccccc4)C(F)(F)F)CC23)cc1C(=O)N[C@H]1[C@@H](C(=O)Nc2ccc(F)c(C(F)(F)F)c2)[C@H]2CC[C@@H]1/C2=C\C1CCCC1 (stereo partly drawn) [Example 174, 1-[3-(5-{[(1R,2R,3S,4R, 7Z)-7-(cyclopentyl-methylidene)-3-{[4-fluoro-3-(trifluoromethyl)phenyl]carbamoyl}bicyclo[2.2.1]heptan-2-yl]carbamoyl}-6-methoxypyridin-3-yl)-3aH,4H,5H,6H, 6aH-cyclopenta[d][1,2]oxazol-5-yl]-2,2,2-trifluoroethyl N-phenylcarbamate] |
